Measured values from PubChem BioAssay AID2060905 (Molecular Pharmacology Branch, DTP, NCI, 2025).

System: 282377-053-R-J1-PDC complex spheroid viability
Experiment: Anticancer human tumor 282377-053-R-J1-PDC patient-derived colon adenocarcinoma cell line growth inhibition [RAS]
Settings: for IC50: curve of first compound; for viability, T/C: stronger effect = lower value
In short: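 Multi-cell-type spheroids: tumor cells plus HUVEC endothelial cells and mesenchymal stem cells. RAS-pathway inhibitors were combined with targeted agents, each dosed in half-log steps down from clinical Cmax, or from 10 microM when Cmax was unknown.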

[1] = second compound 0.000949 µM, first compound 0.0316 µM
[2] = second compound 0.000949 µM, first compound 0.1 µM
[3] = second compound 0.000949 µM, first compound 0.316 µM
[4] = second compound 0.000949 µM, first compound 1 µM
[5] = second compound 0.003 µM, first compound 0.0316 µM
[6] = second compound 0.003 µM, first compound 0.1 µM
[7] = second compound 0.003 µM, first compound 0.316 µM
[8] = second compound 0.003 µM, first compound 1 µM
[9] = second compound 0.00949 µM, first compound 0.0316 µM
[10] = second compound 0.00949 µM, first compound 0.1 µM
[11] = second compound 0.00949 µM, first compound 0.316 µM
[12] = second compound 0.00949 µM, first compound 1 µM
[13] = second compound 0.03 µM, first compound 0.0316 µM
[14] = second compound 0.03 µM, first compound 0.1 µM
[15] = second compound 0.03 µM, first compound 0.316 µM
[16] = second compound 0.03 µM, first compound 1 µM
[17] = second compound 0.0949 µM, first compound 0.0316 µM
[18] = second compound 0.0949 µM, first compound 0.1 µM
[19] = second compound 0.0949 µM, first compound 0.316 µM
[20] = second compound 0.0949 µM, first compound 1 µM
[21] = second compound 0.3 µM, first compound 0.0316 µM
[22] = second compound 0.3 µM, first compound 0.1 µM
[23] = second compound 0.3 µM, first compound 0.316 µM
[24] = second compound 0.3 µM, first compound 1 µM
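Also: spheroids exposed to agents for seven days before readout.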
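For viability, T/C in this document: luminescence viability as percent of DMSO vehicle control wells.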

O=C(c1ccc(F)c(F)c1Nc1ccc(I)cc1F)N1CC(O)([C@@H]2CCCCN2)C1 + CCn1c(-c2cccnc2C(C)OC)c2c3cc(ccc31)N1CCOC(CC(NC(=O)C(C(C)C)N(C)C(=O)C3(F)CCN(C(=O)C#CC(C)(C)N(C)C)CC3)C(=O)N3CCCC(N3)C(=O)OCC(C)(C)C2)C1
IC50 (second compound 0.000949 µM): 74.2 nM
IC50 (second compound 0.003 µM): 125 nM
IC50 (second compound 0.00949 µM): 93.5 nM
IC50 (second compound 0.03 µM): 165 nM
IC50 (second compound 0.0949 µM): 25 nM
IC50 (second compound 0.3 µM): 73.8 nM
viability, T/C (second compound 0.000949 µM, first compound 0.00316 µM): 66.2%
viability, T/C (second compound 0.000949 µM, first compound 0.01 µM): 80.3%
viability, T/C [1]: 78.2%
viability, T/C [2]: 41.3%
viability, T/C [3]: 30.4%
viability, T/C [4]: 17.1%
viability, T/C (second compound 0.003 µM, first compound 0.00316 µM): 70.2%
viability, T/C (second compound 0.003 µM, first compound 0.01 µM): 74.1%
viability, T/C [5]: 71.4%
viability, T/C [6]: 42.2%
viability, T/C [7]: 42.6%
viability, T/C [8]: 14.7%
viability, T/C (second compound 0.00949 µM, first compound 0.00316 µM): 74.3%
viability, T/C (second compound 0.00949 µM, first compound 0.01 µM): 90%
viability, T/C [9]: 48.3%
viability, T/C [10]: 59.2%
viability, T/C [11]: 29.2%
viability, T/C [12]: 22.5%
viability, T/C (second compound 0.03 µM, first compound 0.00316 µM): 82.8%
viability, T/C (second compound 0.03 µM, first compound 0.01 µM): 75.3%
viability, T/C [13]: 70.3%
viability, T/C [14]: 56%
viability, T/C [15]: 41.6%
viability, T/C [16]: 21%
viability, T/C (second compound 0.0949 µM, first compound 0.00316 µM): 67.2%
viability, T/C (second compound 0.0949 µM, first compound 0.01 µM): 81.3%
viability, T/C [17]: 43.8%
viability, T/C [18]: 33.7%
viability, T/C [19]: 37.9%
viability, T/C [20]: 20.6%
viability, T/C (second compound 0.3 µM, first compound 0.00316 µM): 64.3%
viability, T/C (second compound 0.3 µM, first compound 0.01 µM): 91.2%
viability, T/C [21]: 53.7%
viability, T/C [22]: 46.6%
viability, T/C [23]: 30.1%
viability, T/C [24]: 17.6%

CCC(CC)c1cc(NC2CCC(N)C2)n2nccc2n1 (centres undefined) + CCn1c(-c2cccnc2C(C)OC)c2c3cc(ccc31)N1CCOC(CC(NC(=O)C(C(C)C)N(C)C(=O)C3(F)CCN(C(=O)C#CC(C)(C)N(C)C)CC3)C(=O)N3CCCC(N3)C(=O)OCC(C)(C)C2)C1
IC50 (second compound 0.000949 µM): 1720 nM
IC50 (second compound 0.003 µM): 1670 nM
IC50 (second compound 0.00949 µM): 1760 nM
IC50 (second compound 0.03 µM): 1850 nM
IC50 (second compound 0.0949 µM): 1610 nM
IC50 (second compound 0.3 µM): 1780 nM
viability, T/C [1]: 98.1%
viability, T/C [2]: 105%
viability, T/C [3]: 81.3%
viability, T/C [4]: 87%
viability, T/C (second compound 0.000949 µM, first compound 3.16 µM): 8.86%
viability, T/C (second compound 0.000949 µM, first compound 10 µM): 3.59%
viability, T/C [5]: 86.3%
viability, T/C [6]: 105%
viability, T/C [7]: 79.4%
viability, T/C [8]: 81.4%
viability, T/C (second compound 0.003 µM, first compound 3.16 µM): 10.8%
viability, T/C (second compound 0.003 µM, first compound 10 µM): 3.49%
viability, T/C [9]: 114%
viability, T/C [10]: 93.9%
viability, T/C [11]: 99%
viability, T/C [12]: 89%
viability, T/C (second compound 0.00949 µM, first compound 3.16 µM): 9.93%
viability, T/C (second compound 0.00949 µM, first compound 10 µM): 2.98%
viability, T/C [13]: 81.2%
viability, T/C [14]: 111%
viability, T/C [15]: 102%
viability, T/C [16]: 95.3%
viability, T/C (second compound 0.03 µM, first compound 3.16 µM): 10.7%
viability, T/C (second compound 0.03 µM, first compound 10 µM): 4.2%
viability, T/C [17]: 96.8%
viability, T/C [18]: 110%
viability, T/C [19]: 89.8%
viability, T/C [20]: 77.4%
viability, T/C (second compound 0.0949 µM, first compound 3.16 µM): 11.2%
viability, T/C (second compound 0.0949 µM, first compound 10 µM): 4.78%
viability, T/C [21]: 112%
viability, T/C [22]: 90.2%
viability, T/C [23]: 95%
viability, T/C [24]: 87.6%
viability, T/C (second compound 0.3 µM, first compound 3.16 µM): 12.6%
viability, T/C (second compound 0.3 µM, first compound 10 µM): 4.08%
